ChEMBL document CHEMBL2311407, “Design and synthesis of diazatricyclodecane agonists of the G-protein-coupled receptor 119” (J Med Chem, 2013)

Test: Apparent intrinsic clearance in human liver microsomes
Type: ADME, Microsome
Details: read-out: CLH(app)

- CLint scaled: > 30 mL/min/kg
Structure (SMILES): Cc1ncccc1Oc1ncnc(N2C3CC4CC2CC(C3)N4C(=O)OC2(C)CCC2)c1C
